Read-outs that look alike come from different tables or passages of the source.
Legend:
[1] = test system: BRD4; experiment: BRD4 CRISPRi of K562 cells; assay type: cell-based, human
Text: For CRISPRi, we first made lentivirus expressing dCas9-KRAB (Fulco et al., 2016; Xie et al., 2017) from Addgene plasmid #89567, a gift from Gary Hon, packaged in HEK293T cells along with pMD2.G (Addgene plasmid #12259) and psPAX2 (Addgene plasmid #12260), both gifts from Didier Trono. We cloned a BRD4 guide RNA, selected from the Dolcetto collection (Sanson et al., 2018), into the sgOpti plasmid (Addgene plasmid #85681, a gift from Eric Lander & David Sabatini) using Golden Gate assembly with Esp3I. We used an in-house pipeline to design a non-targeting gRNA sequence, which was cloned into CROP-seq-opti (Lalli et al., 2019). Plasmids were transfected into HEK293T cells using Lipofectamine 2000. Media was collected after 24 and 48 hours, and subsequently concentrated using Lenti-X Concentrator. Viral titers were functionally assed on HEK293T cells using the appropriate antibiotic (blasticidin or puromycin).
Next, we generated a polyclonal pool of dCas9-KRAB-expressing K562 cells. We seeded each well of a 6-well plate with 200,000 cells each containing 2 mL of growth media supplemented with 4 μg/ml polybrene and 1,000,000 infectious lentiviral particles for an estimated multiplicity of infection (MOI) of 5. Plates were centrifuged at 2,000 g for 30 minutes and returned to the incubator. After 48 hours, cells were split to mid-log phase concentration (˜400,000 cells/nil) and selected on blasticidin (10 μg/ml) for 48 hours. We made frozen stocks from these cells.
For the knockdown experiments, cells were thawed and allowed to recover for 4 days. We confirmed that the proportions of CD24^high/CD24^low was approximately equal at this point. We then seeded 200,000 cells into each well of a 6-well plate. Three wells received the BRD4 gRNA lentivirus, while the other three received the non-targeting gRNA lentivirus, at MOI 2.5. We followed the same transduction protocol described above. After 48 hours of incubation, puromycin was added to the medium at a final concentration of 2 μg/ml. After a further 48 hours, cells were passaged 1:1 into 10 cm dishes containing 10 mL of growth medium. […]

[2] = test system: K562 cells; experiment: Cell cycle perturbation of K562 cells (DNA content, CD24, annexin V/PI); assay type: cell-based, human; settings: for cells in G1 phase / G1 arrest / G2 arrest: 36 hours of treatment; for cells in G1 phase / G1 arrest: CVT-313 2 μM (p<0.05), lovastatin 12 μM (p<0.01), FIG. 14G; for G2 arrest: one-way ANOVA p<0.01
Method: CD24 surface protein was quantified using monoclonal human antibodies. Cells were spun down at 300 g for 3 minutes and washed twice with 1 mL of Cell Staining Buffer. The cell pellet was then resuspended in 50 μl of Cell Staining Buffer containing 0.2 μg of either CD24-APC or CD24-BV421. The tube was rotated at 4° C. in the dark for 30 minutes. After, cells were washed twice (as before) and finally resuspended in 200 μl of Cell Staining Buffer. Cells were excited with 450/45 and 660/20 lasers (wavelength/filter bandwidth, both in nm). For concomitant analysis of DNA content, we used CD24-APC. Cells were incubated with 10 μg/ml Hoechst 33342 in 5 mL of growth medium for 30 minutes prior to the staining protocol. For simultaneous assessment of apoptosis, cells were stained with CD24-BV421. After the final wash, instead of resuspending in 200 μl of Cell Staining Buffer, cells were washed twice with Annexin V Staining Buffer. Cells were then incubated in 50 μl Annexin V Staining Buffer containing 0.2 μg Annexin V-FITC and 100 μg/ml propidium iodide (PI). The reaction was incubated for 15 minutes at room temperature in the dark. Afterward, we added 150 μl of Annexin V Staining Buffer and proceeded to flow cytometry. All samples were measured on a Beckman-Coulter CytoFLEX S flow cytometer. Cells were excited with 450/45, 525/40, and 610/20 lasers. We collected 10,000 events per sample. The resulting data were processed with FlowJo Software for Mac Version 10.
We perturbed the cell cycle with lovastatin and nocodazole, two drugs classically used to synchronize cells in culture (Jackman and O'Connor, 2001), as well as the cyclin-dependent kinase inhibitors CVT-313 (Brooks et al., 1997) and RO-3306 (Vassilev et al., 2006). All drugs were dissolved in DMSO except nocodazole, which was dissolved in ethanol. […] Media was refreshed every 48 hours. After 36 hours of treatment, we stained for CD24 levels and nuclear DNA content. We gated for live, single cells using the forward scatter (FSC) and side scatter channels (SSC). Univariate cell cycle analysis was performed with FlowJo. We confirmed that all drugs perturbed cell cycle by altering the proportions of cells in either G1 or G2/M phase (FIG. 14G). […] Cultures remained under drug treatment until five days had elapsed, at which point we measured CD24 levels and stained for apoptosis (FIG. 14H). As before, we set gates to exclude debris to quantitate annexin V and PI, and measured CD24 in live cells gated on FSC and SSC. The G2 inhibitors, in particular, had very few cells in the FSC/SSC gate (typically below 5%).
For the analysis of annexin V levels in either JQ1- or DMSO-treated CD24^high and CD24^low cells, we used a three-way ANOVA with treatment, cell state, and day as independent variables. […] Multiple hypothesis correction was performed using Tukey's honestly significant difference. For the cell cycle inhibitor experiment, data were analyzed using a one-way ANOVA with Dunnett's post hoc test using either DMSO or EtOH (for RO-3306) as controls.

[3] = test system: Hematologic and solid malignancies; 17 with NMC; settings: cited from earlier work
[4] = test system: Relapsed/refractory lymphoma or multiple myeloma; settings: cited from earlier work
[5] = test system: Acute leukemia, MDS; settings: cited from earlier work; for DLTs: G3
[6] = test system: NMC; settings: cited from earlier work; for toxicities of interest: 4 patients (case series)
[7] = test system: Relapsed/refractory leukemia; settings: cited from earlier work
[8] = test system: NMC, CRPC, NSCLC; settings: cited from earlier work
[9] = test system: K562 cells; settings: Litzenburger et al., 2017; cited from earlier work
[10] = test system: Relapsed/refractory lymphoma; settings: cited from earlier work
[11] = test system: Advanced solid tumors or NHL; settings: cited from earlier work; for DLTs: G3, at 80 mg, 8 patients
[12] = nocodazole 40 ng/μl, RO-3306 4.5 μM

Q: Which “sensitization of K562 cells to imatinib” value ([1]; imatinib 1 μM, Tukey's HSD p=0.68 (FIG. 14E-14F)) does the source give for “BRD4 gRNA: guide RNA GCGGCTGCCGGCGGTGCCCG for knockdown of BRD4 with CRISPRi (dCas9-KRAB) (listed as DNA, chemistry not given here)” here?
A: Its value is “partially phenocopied”.

Q: What about the “proportion of CD24high cells compared to non-targeting (NT) gRNA” value ([1]; nine days after gRNA transduction, Welch's t test p<0.01 (FIG. 6E), not to the same levels as JQ1) of the same molecule?
A: The value was “significant decrease”.

Q: What about the “reduction of BRD4 mRNA levels” value ([1]; qRT-PCR (FIG. 14D)) of the same molecule?
A: Its value is “less than 50%”.

Q: With `COc1ccc(CNc2nc(N(CCO)CCO)nc3c2ncn3C(C)C)cc1` [CVT-313] as the molecule, how does the “cells in G1 phase / G1 arrest” value [2] read?
A: The value was “significant increase”.

Q: With `CCNC(=O)C[C@@H]1N=C(c2ccc(Cl)cc2)c2cc(OC)ccc2-n2c(C)nnc21` [GSK525762] as the molecule, how does the “Responses observed: PR in NMC patients” value ([3]; 17 with NMC) read?
A: The value was 2.

Q: What about the “Responses observed: SD in NMC patients” value ([3]; 17 with NMC) of the same molecule?
A: Its value is 4.

Q: And the RP2D ([3]; daily, 70 patients)?
A: The RP2D was 80 mg.

Q: Which G2 arrest [2, 12] does the source give for `O=C1NC(=NCc2cccs2)S/C1=C\c1ccc2ncccc2c1` [RO-3306] here?
A: Its G2 arrest is “significant G2 arrest”.

Q: Which results are given for `Cc1sc2c(c1C)C(c1ccc(Cl)cc1)=N[C@@H](CC(=O)Nc1ccc(O)cc1)c1nnc(C)n1-2` [MK-8628/OTX015]?
A: DLTs ([4]; G3): hyponatremia; DLTs ([4]; G4, neutropenia): neutropenia,; DLTs ([4]; G4, thrombocytopenia): thrombocytopenia, G4; Responses observed: OR (DLBCL) ([4]; number of patients of 45): 3 OR; Responses observed: with improvement of pleural effusion ([4]; number of patients of 45): (DLBCL), 1; Responses observed: with resolution of B symptoms ([4]; number of patients of 45): effusion; 2; Responses observed: with responses not meeting PR criteria ([4]; number of patients of 45): 2 with; RP2D ([4]; q.d.s. × 14/21 days, 45 patients): 80 mg; anemia ([4]; toxicity incidence): (91%); diarrhea ([4]; toxicity incidence): (47%),; dysgeusia ([4]; toxicity incidence): (15%),; fatigue ([4]; toxicity incidence): (27%),; DLTs ([5]; diarrhea): diarrhea, G3; DLTs ([5]; fatigue): fatigue.; diarrhea ([5]; limited compliance): (34%),; rash ([5]; limited compliance): rash (20%); Responses observed: CR ([5]; number of patients of 41): 2; Responses observed: CRi (platelets) × 2 months ([5]; number of patients of 41): 1; RP2D ([5]; q.d.s. × 14/21 days, 41 patients): 80 mg; toxicities of interest ([6]; G2, dysgeusia): dysgeusia,; toxicities of interest ([6]; G2, fatigue): G2 fatigue; toxicities of interest ([6]; G2, hyperglycemia): hyperglycemia,; toxicities of interest ([6]; G2, nausea): G2 nausea, G2; toxicities of interest ([6]; G3): thrombocytopenia,; Responses observed: PR ([6]; number of patients of 4): 2; Responses observed: SD ([6]; number of patients of 4): 1; Responses observed: CR ([7]; number of patients of 36): 1 CR; 1 CRi; Responses observed: CRi (platelets) ([7]; number of patients of 36): 1 CR; 1 CRi; Responses observed: with disappearance of hypertrophied gums ([7]; number of patients of 36): clearance, 1; MTD ([7]; q.d.s., 36 patients): 120 mg; abdominal pain ([7]; toxicity incidence): pain (11%),; decreased factor VII ([7]; toxicity incidence): (21%); dysgeusia ([7]; toxicity incidence): (11%),; Responses observed: PR ([8]; number of patients of 47): 4; Responses observed: SD ([8]; number of patients of 47, for 4-8 months): 5; G3-4 thrombocytopenia ([8]; toxicity incidence): (20%), G3; G3 anemia ([8]; toxicity incidence): (9%), G3; G3 fatigue ([8]; toxicity incidence): fatigue (7%)

Q: With `Cc1ccc(NC(=O)c2ccc(CN3CCN(C)CC3)cc2)cc1Nc1nccc(-c2cccnc2)n1` [imatinib] as the molecule, how does the “apoptosis of CD24low versus CD24high K562 cells when exposed to imatinib” value [9] read?
A: The value was “more apoptosis”.

Q: With `Cc1noc2c1-c1ccccc1C(c1ccc(Cl)cc1)=N[C@H]2CC(N)=O` [CPI-0610] as the molecule, how does the primary toxicity ([10]; dose dependent, reversible) read?
A: Its primary toxicity is “thrombocytopenia;”.

Q: And the “Responses observed: CR” value ([10]; number of patients of 44)?
A: Its value is 2.

Q: What about the “Responses observed: PR” value ([10]; number of patients of 44) of the same molecule?
A: The value was 1.

Q: What about the “Responses observed: SD” value ([10]; number of patients of 44) of the same molecule?
A: The value was “PR; 6 SD”.

Q: What about the “Responses observed: with responses not qualifying as PR” value ([10]; number of patients of 44) of the same molecule?
A: Its value is 5 with.

Q: And the “patients with G3 diarrhea” value ([10]; of 44 patients)?
A: Its value is 1 patient with.

Q: And the “patients with G4 thrombocytopenia” value ([10]; of 44 patients)?
A: Its value is 1 patient with.

Q: For `CC[C@H](C)C(=O)O[C@H]1C[C@@H](C)C=C2C=C[C@H](C)[C@H](CC[C@@H]3C[C@@H](O)CC(=O)O3)[C@H]21` [lovastatin], which “cells in G1 phase / G1 arrest” value [2] is on record?
A: The value was “significant decrease”.

Q: Which results are given for `CNC(=O)N1N=C(c2ccc(N3CCN(C)CC3)cc2)c2cc(OC)c(OC)cc2C[C@@H]1C` [BAY1238097]?
A: Development (as DLTs occurred at subtherapeutic doses of drug) ([11]; 5-40 mg 2×/week in 21 day cycle): halted as; Recurrent headaches, patients ([11]; 10 and 40 mg cohorts): in 50%; DLTs ([11]; headache): headache,; DLTs ([11]; low back pain): G3 low back; DLTs ([11]; vomiting): G3 vomiting,

Q: Which results are given for `COC(=O)Nc1nc2ccc(C(=O)c3cccs3)cc2[nH]1` [nocodazole]?
A: G2 arrest [2, 12]: significant G2 arrest; surviving cells after five days of treatment ([2]; K562, nocodazole 40 ng/μl, RO-3306 4.5 μM): very few surviving cells
